Source: patent US20120165223A1 (priority 2006, published 2012)

What was measured:
anaerobic bacteria = assay: Composition of flora in feces of HFA mice: total number of anaerobic bacteria; type: in vivo; settings: 17th day, 500 μg/Ml in drinking water
Excerpt: (§1) For the one week, the feces were picked asceptially with the interval of two to three days. The feces collected of colistin sulfate administeration, 2nd, 4th, 7th, 10th, 13th and 17th days are put in an encapsulated tube and moved to an anaerobic chamber immediately and is put in the PRAS (Prereduced and anaerobically sterilized) TGY medium with the ten times dilution of the weight of feces. The total number of anaerobic bacteria, the number of Bacteroides fragilis and Bifidobacterium spp. of the anaerobic bacteria, the number of aerobic bacteria, and the number of Esherichia coli and Enterococcus spp. of the aerobic bacteria are measured. […] (FIG. 7)

aerobic bacteria = assay: Composition of flora in feces of HFA mice: number of aerobic bacteria; type: in vivo; settings: 7th, 10th and 13th day from the medication, 500 μg/Ml in drinking water
Excerpt: as §1

Enterococcus spp. = assay: Composition of flora in feces of HFA mice: Enterococcus spp.; type: in vivo; settings: 4th and 27th day from the medication, 500 μg/Ml in drinking water
glucuronidase = assay: Fecal enzyme activity of flora of HFA mice: glucuronidase; type: in vivo, human intestinal normal bacterial flora
Protocol: (§2) For the one week, the feces were picked free from germs with the interval of two to three days. The feces collected at the day of colistin sulfate administration, 2nd, 4th, 7th, 10th, 13th, 17th and 20th days and at 3rd and 5th day after the stop of medication are put in an encapsulated tube and moved to an anaerobic chamber immediately and the activity of glucuomidase, glucosidase, nitrate reductase and azoreductase produced by the human intestinal normal bacterial flora is measured. As a result glucuronidase is decreased throughout the period of administration and the withdrawal period in comparison with control groups and is not recovered even at the 5th day since the medication is stopped. Glucosidase is increased during the medication period in comparison with the control groups. Nitrate reductase is increased in comparison with the control group at the start day of administration and the 2nd day of the medication but is recovered. Azoreductase is increased in comparison with the control group until the 7th day of medication and then decreased.

glucosidase = assay: Fecal enzyme activity of flora of HFA mice: glucosidase; type: in vivo, human intestinal normal bacterial flora
Protocol: as §2

nitrate reductase = assay: Fecal enzyme activity of flora of HFA mice: nitrate reductase; type: in vivo, human intestinal normal bacterial flora
Protocol: as §2

azoreductase = assay: Fecal enzyme activity of flora of HFA mice: azoreductase; type: in vivo, human intestinal normal bacterial flora
Protocol: as §2

[1] = 5th day since the medication is stopped

colistin sulfate was tested, and the “Total number of anaerobic bacteria in feces in comparison with HFA mice” value (anaerobic bacteria) was “increased by about twice”, the “Number of aerobic bacteria in feces” value (aerobic bacteria) was “decreased” and the “Enterococcus spp. in feces” value (Enterococcus spp.) was “decreased in similar way to the control group”. The “Glucuronidase activity, recovery” value (glucuronidase; [1]) was “not recovered”, the “Glucuronidase activity in comparison with control groups” value (glucuronidase; throughout the period of administration and the withdrawal period) was “decreased” and the “Glucosidase activity, recovery” value (glucosidase; [1]) was “not recovered”. For the same substance, the “Glucosidase activity in comparison with the control groups” value (glucosidase; during the medication period) was “increased”, the “Nitrate reductase activity, recovery” value (nitrate reductase; after the 2nd day of the medication) was “recovered” and the “Nitrate reductase activity in comparison with the control group” value (nitrate reductase; start day of administration and 2nd day of the medication) was “increased”. For the same substance, the “Azoreductase activity, recovery” value (azoreductase; [1]) was “not even recovered”, the “Azoreductase activity in comparison with the control group” value (azoreductase; after the 7th day of medication) was “decreased” and the “Azoreductase activity in comparison with the control group” value (azoreductase; until the 7th day of medication) was “increased”.
